Measured values as given in PMC8225959, “Clickable Radiocomplexes With Trivalent Radiometals for Cancer Theranostics: In vitro and in vivo Studies” (Frontiers in Medicine, 2021).

Columns and labels:
[1] = tested on: PC3 xenografts; assay: Ex vivo biodistribution of [90Y]Y-DOTA-Tz in mice bearing PC3 xenografts; conditions: PC3 xenograft mice
From the text: Currently, we are investigating the application of click chemistry using biomolecules that target prostate cancer. Therefore, since a non-specific tumor uptake might interfere with the specificity of the pre-targeting approach, we have performed in vivo studies of [^90Y]Y-DOTA-Tz in mice bearing PC3 xenografts to assess the possible non-specific uptake of the clickable radiocomplex in the tumor and in the tumor microenvironment. […] This type of optical imaging offers a high spatial resolution, and despite a limited penetration depth allows to image ^90Y, which is not easily feasible using PET or SPECT imaging ([32]). […] At the selected time points the majority of the compound was retrieved in the urine, with 88 and 96% of the I.D. excreted 1 and 2 h post-injection, respectively. page 9: from whole animal body. Blood samples were taken by cardiac puncture at sacrifice. […] The animals were kept under […] volume of approximate 390 ± 190 mm3. […] […] carried out on groups of 8 mice (n = 4). […] The animals were weighed and dissected.

[2] = Stability of the [90Y]Y-DOTA-Tz preparation (HPLC, radiolysis); format: physicochemical
Description: The radiolabelling with ^90Y was performed following the same procedure previously optimized for ^111In, using a buffer of 0.1 M ammonium acetate at pH 7 and heating the mixture at 80°C for 15 min. The DOTA-Tz chelator was added to a final concentration of 400–500 μM to yield [^90Y]Y-DOTA-Tz with specific activities up to 3.3 MBq/nmol and radiochemical yields above 90% (Supplementary Figure 4A). The radiocomplex [^90Y]Y-DOTA-Tz was synthesized with ~130 MBq of [^90Y]YCl3 and obtained in very high specific activity, after separation from the non-labeled DOTA-Tz chelator. The radiocomplex was recovered into phosphate buffer at pH 8 to neutralize the residual TFA from the HPLC mobile phase before its use in future biological studies. […] In order to stabilize the [^90Y]Y-DOTA-Tz preparation, a suitable ratio between the volume of phosphate buffer solution at pH 8 to neutralize the TFA from the HPLC purification and ascorbic acid as a radiolytic stabilizer had to be optimized. In initial experiments, the use of ascorbic acid as a buffer in the radiolabelling procedure led to the degradation of the tetrazine moiety. Similar effect was seen when the ascorbic acid solution (50 mg/mL) was added to the solution after labeling. […]

[3] = tested on: PC3 tumor; assay: Cerenkov luminescence imaging of PC3 tumor-bearing mice pretargeted with TCO-PEG4-AR then [90Y]Y-DOTA-Tz; format: in vivo; conditions: 1 nmol TCO-PEG4-AR, radiocomplex after 4 h
Description: The Cerenkov Luminescence Imaging of the prostate cancer PC3 tumor-bearing mice was carried out at different time points (15 min, 1 and 2 h) after intravenous injection of [^90Y]Y-DOTA-Tz. […] Thereafter, the CLI imaging of the PC3 tumor-bearing mice was carried out at different time points (15 min, 1 h). The images were obtained using PhotonIMAGER™ (BioSpace Lab).

[4] = 1 h p.i., listed as [^90Y]Y-DOTA-Tz
[5] = 2 h p.i., listed as [^90Y]Y-DOTA-Tz

Biodistribution: Blood ([1]; 1 h p.i.): 1.59 ± 0.62 % I.D./g
Biodistribution: Bone ([1]; 1 h p.i.): 1.04 ± 0.25 % I.D./g
Biodistribution: Intestine ([1]; 1 h p.i.): 0.41 ± 0.2 % I.D./g
Biodistribution: Kidneys ([1]; 1 h p.i.): 3.65 ± 0.49 % I.D./g
Biodistribution: Liver ([1]; 1 h p.i.): 0.76 ± 0.07 % I.D./g
Biodistribution: Lung ([1]; 1 h p.i.): 1.24 ± 0.32 % I.D./g
Biodistribution: Muscle ([1]; 1 h p.i.): 0.5 ± 0.2 % I.D./g
Biodistribution: Pancreas ([1]; 1 h p.i.): 0.7 ± 0.32 % I.D./g
Biodistribution: Salivary Gland ([1]; 1 h p.i.): 0.68 ± 0.12 % I.D./g
Biodistribution: Spleen ([1]; 1 h p.i.): 1 ± 0.27 % I.D./g
Biodistribution: Stomach ([1]; 1 h p.i.): 0.65 ± 0.33 % I.D./g
Biodistribution: Tumour ([1]; 1 h p.i.): 1.0 ± 0.4 % I.D./g
Biodistribution: Blood [1, 4]: 1.59 % I.D./g
Biodistribution: Kidneys [1, 4]: 3.6 % I.D./g
Biodistribution: Blood ([1]; 2 h p.i.): 0.22 ± 0.01 % I.D./g
Biodistribution: Bone ([1]; 2 h p.i.): 0.54 ± 0.04 % I.D./g
Biodistribution: Intestine ([1]; 2 h p.i.): 0.17 ± 0.05 % I.D./g
Biodistribution: Kidneys ([1]; 2 h p.i.): 2.54 ± 0.71 % I.D./g
Biodistribution: Liver ([1]; 2 h p.i.): 0.49 ± 0.15 % I.D./g
Biodistribution: Lung ([1]; 2 h p.i.): 0.31 ± 0.04 % I.D./g
Biodistribution: Muscle ([1]; 2 h p.i.): 0.15 ± 0.01 % I.D./g
Biodistribution: Pancreas ([1]; 2 h p.i.): 0.27 ± 0.12 % I.D./g
Biodistribution: Salivary Gland ([1]; 2 h p.i.): 0.17 ± 0.02 % I.D./g
Biodistribution: Spleen ([1]; 2 h p.i.): 0.33 ± 0.16 % I.D./g
Biodistribution: Stomach ([1]; 2 h p.i.): 0.23 ± 0.08 % I.D./g
Biodistribution: Tumour ([1]; 2 h p.i.): 0.37 ± 0.17 % I.D./g
Biodistribution: Blood [1, 5]: 0.22 % I.D./g
Biodistribution: Kidneys [1, 5]: 2.5 % I.D./g
Biodistribution: Tumour [1, 5]: 0.37 % I.D./g
in vitro stability of the preparation ([2]; 3 μL ascorbic acid (50 mg/mL) and 147 μL phosphate buffer pH 8, up to 20 h after the radiolabelling): excellent in vitro stability
stability of the preparation ([2]; recovered into phosphate buffer pH 8, no stabilizer, after 2 h at room temperature): high degradation
Structure (SMILES): O=C([O-])CN1CCN(CC(=O)[O-])CCN(CC(=O)NCc2ccc(-c3nncnn3)cc2)CCN(CC(=O)[O-])CC1.[90Y+3] [[90Y]Y-DOTA-Tz]
Cerenkov imaging: tumor uptake ([3]; images at 15 min p.i.): some tumor uptake
Cerenkov imaging: activity localization ([3]; images at 1 h after the injection): majority of the activity localized in the kidneys
